The text below walks through data of publication PMC9088016, “Synthesis and biological evaluation of phosphatidylcholines with cinnamic and 3-methoxycinnamic acids with potent antiproliferative activity” (RSC Advances, 2018).

One test relates to MV4-11 cells. As to the kind of experiment: Antiproliferative assay in vitro (MTT), 72 h. To be noted: leukaemia cells; for IC50: MTT, 72 h exposure, mean ± SD; for Fold lower IC50 than free cinnamic / 3-methoxycinnamic acid: versus corresponding free acid. It counts as cell-based, human. How it is done: (§1) Biophenotypic B myelomonocytic leukaemia MV4-11, human lung carcinoma A549, human breast carcinoma MCF-7, human colon carcinoma LoVo, its drug resistant line LoVo/DX, liver carcinoma HepG2, and normal mouse fibroblast BALB/3T3 cells were obtained from the American Type Culture Collection (Rockville, Maryland, USA). All lines are being maintained at the Institute of Immunology and Experimental Therapy, Wrocław, Poland. All cell lines were grown in a humid atmosphere at 37 °C with 5% CO2 and were cultured in media according to the method described before.[18]
(§2) Prior to usage, the compounds were dissolved in DMSO to the concentration of 25 or 50 mM, and subsequently diluted in the culture medium to reach the required concentrations (ranging from 5 to 625 μM).
(§3) Twenty-four hours before addition of the tested compounds, the cells were plated in 96-well plates (Sarstedt, USA) at a density of 10^4 cells per well. All cell lines were exposed to each tested phosphatidylcholines for 72 h. Cells were also exposed to the commercially available drugs cisplatin and doxorubicin. Cell lines were also exposed to the solvent used for the tested compounds (DMSO) at concentrations corresponding to those present in the tested agents' dilutions. For adherent cells, a SRB assay was performed and an MTT assay was performed for leukaemia cells.
This technique was applied for the cytotoxicity screening against leukemia cells. An assay was performed after 72 h exposure to varying concentrations (from 5 to 625 μM) of the tested agents. For the last 3–4 hours of incubation. 20 μL of MTT solution was added to each well (MTT: 3-(4,5-dimethylthiazol-2-yl)-2,5-diphenyl tetrazolium bromide; stock solution: 5 mg mL^−1, Sigma, Germany). The mitochondria of viable cells reduce the pale yellow MTT to a navy blue formazan: the more viable cells are present in a well, the more MTT will be reduced to formazan. When the incubation time was completed, 80 μL of the lysing mixture was added to each well (lysing mixture: 225 mL dimethylformamide, 67.5 g sodium dodecyl sulphate, and 275 mL of distilled water). After 24 h, when formazan crystals had been dissolved, the optical densities of the samples were read with a Multiskan RC photometer at 570 nm wavelength. Each compound in a given concentration was tested in triplicate in each experiment, which was repeated 3–5 times.
(§4) The results of the cytotoxic activity in vitro were expressed as IC50—the concentration of compound (in μM) that inhibits the proliferation rate of the tumor cells by 50% as compared to control untreated cells.

Another test relates to A549 cells. As to the kind of experiment: Antiproliferative assay in vitro (SRB), 72 h. Format: cell-based, human. To be noted: 72 h exposure, mean ± SD, read-out: IC50 A-549. The procedure:
as §1, §2, §3
(§5) The cytotoxicity assay was performed after 72 h exposure of the cultured cells to varying concentrations (from 5 to 625 μM) of the tested agents. The cells attached to the plastic were fixed in situ by gently adding 50 μL per well of cold 50% TCA (trichloroacetic acid). The plates were incubated at 4 °C for 1 h and then washed five times with tap water. The background optical density was measured in the wells filled with culture medium, without the cells. The cellular material fixed with TCA was stained with 50 μL of 0.4% sulforhodamine B (SRB) dissolved in 1% acetic acid for 30 min. Unbound dye was removed by rinsing (4×) with 1% acetic acid. The protein-bound dye was extracted with 10 mM unbuffered Tris base for determination of the optical density (at 540 nm) in a computer-interfaced 96-well microtiter plate reader Multiskan RC photometer (Labsystems, Helsinki, Finland). Each compound in the given concentration was tested in triplicate in each experiment, which was repeated 3–5 times.
as §4

For another test, the system named is HepG2 cells. As to the kind of experiment: Antiproliferative assay in vitro (SRB), 72 h. To be noted: 72 h exposure, mean ± SD. Format: cell-based, human. How it is done:
as §1, §2, §3, §5, §4

The test system of the next test is LoVo cells. As to the kind of experiment: Antiproliferative assay in vitro (SRB), 72 h. It counts as cell-based, human. To be noted: colon cancer cells, 72 h exposure, mean ± SD. The procedure: as §1, §2, §3, §5, §4
For another test, the system named is LoVo/DX cells. As to the kind of experiment: Antiproliferative assay in vitro (SRB), 72 h. Format: cell-based, human. The settings on record: for IC50: doxorubicin-resistant colon cancer cells, SRB, 72 h exposure, mean ± SD; for Resistance index (RI): doxorubicin-resistant LoVo/DX cell line versus LoVo. How it is done: as §1, §2, §3, §5, §4
The next test concerns MCF-7 cells. As to the kind of experiment: Antiproliferative assay in vitro (SRB), 72 h. Format: cell-based, human. The settings on record: 72 h exposure, mean ± SD. The procedure: as §1, §2, §3, §5, §4
The next test relates to BALB/3T3 cells. As to the kind of experiment: Antiproliferative assay in vitro (SRB), 72 h. Format: cell-based, mouse. To be noted: 72 h exposure, mean ± SD. The procedure:
as §1, §2, §3, §5, §4

The mark [1] stands for this setting: Homo sapiens, A549, lung cancer cells.
The mark [2] stands for this setting: Homo sapiens, HepG2, liver cancer cells.
The mark [3] stands for this setting: Homo sapiens, MCF7, breast cancer cells.
Setting [4] is: Mus musculus, BALB/3T3, normal mice fibroblast cells.

Like-named read-outs stand apart in the source and are kept apart here.

`COc1cccc(C=CC(=O)O)c1` [Compound 1b, 3-methoxycinnamic acid]: the IC50 (commonly the concentration at which inhibition is half-maximal) was 339 ± 111 µM in the test with MV4-11 cells (Homo sapiens, MV4-11); greater than 625 µM in the test on A549 cells (setting [1]); greater than 625 µM in the test with HepG2 cells (setting [2]); 233 ± 15.5 µM with LoVo cells (Homo sapiens, LoVo); greater than 625 µM in the test on LoVo/DX cells (Homo sapiens, LoVo/DX); 420 ± 56.2 µM in the test with MCF-7 cells (setting [3]). For the same compound, the IC50 in the test on BALB/3T3 cells (setting [4]) is 506 ± 67.7 µM.
Regarding `COc1cccc2c1C(=O)c1c(O)c3c(c(O)c1C2=O)C[C@@](O)(C(=O)CO)C[C@@H]3O[C@H]1C[C@H](N)[C@H](O)[C@H](C)O1` [Doxorubicin, doxorubicin, reference compound], the “Resistance index (RI)” value in the test on LoVo/DX cells is reported as 55.81.
On to `O=C(O)/C=C/c1ccccc1` [Compound 1a, Cinnamic acid], for which the IC50 with MV4-11 cells (Homo sapiens, MV4-11) is 359 ± 105 µM; in the test with A549 cells (setting [1]) it was greater than 625 µM; in the test on HepG2 cells (setting [2]), greater than 625 µM; in the test with LoVo cells (Homo sapiens, LoVo) it was 284 ± 26.6 µM; with LoVo/DX cells (Homo sapiens, LoVo/DX), greater than 625 µM; in the test with MCF-7 cells (setting [3]), 480 ± 46.2 µM. Moreover, in the test on BALB/3T3 cells (setting [4]), the IC50 is greater than 625 µM.
On to “1-(3-Methoxycinnamoyl)-2-hydroxy-sn-glycero-3-phosphocholine [Compound 9b]”, for which the IC50 in the test on MV4-11 cells stood at 30.5 ± 8.2 µM; in the test with A549 cells (lung cancer cells), 259 ± 16.7 µM; in the test with HepG2 cells (liver cancer cells) it was 272 ± 33.1 µM; in the test with LoVo cells, 85.1 ± 11.9 µM; in the test on LoVo/DX cells, 160 ± 61.7 µM; in the test with MCF-7 cells (breast cancer cells), 84.1 ± 7.4 µM. Moreover, in the test on BALB/3T3 cells (normal mice fibroblast cells), inhibition was half-maximal at 154 ± 66.4 µM (IC50). For the same compound, the “Fold lower IC50 than free cinnamic / 3-methoxycinnamic acid” value in the test on MV4-11 cells worked out at 11 fold. The “Resistance index (RI)” value with LoVo/DX cells is listed as 1.88.
As for `COc1cccc(C=CC(=O)OC[C@H](COP(=O)([O-])OCC[N+](C)(C)C)OC(=O)C=Cc2cccc(OC)c2)c1` [Compound 3b, 1,2-Di(3-methoxycinnamoyl)-sn-glycero-3-phosphocholine], the IC50 was determined as 165 ± 25.4 µM in the test on MV4-11 cells (Homo sapiens, MV4-11); 286 ± 5.3 µM with A549 cells (setting [1]); 83.6 ± 45.1 µM in the test on HepG2 cells (setting [2]); 210 ± 22.2 µM with LoVo cells (Homo sapiens, LoVo); 32.1 ± 16.9 µM in the test on LoVo/DX cells (Homo sapiens, LoVo/DX); 307 ± 12.5 µM with MCF-7 cells (setting [3]). Further, the IC50 in the test on BALB/3T3 cells (setting [4]) is 297 ± 56.4 µM. Also, the “Resistance index (RI)” value in the test on LoVo/DX cells was 0.15.
On to `CCCCCCCCCCCCCCCC(=O)O[C@H](COC(=O)C=Cc1ccccc1)COP(=O)([O-])OCC[N+](C)(C)C` [Compound 10a, 1-Cinnamoyl-2-palmitoyl-sn-glycero-3-phosphocholine], for which the IC50 in the test with MV4-11 cells (Homo sapiens, MV4-11) was found to be 88.7 ± 28.9 µM; in the test on A549 cells (setting [1]), 61.9 ± 3.7 µM; in the test with HepG2 cells (setting [2]) it was 283 ± 5.2 µM; with LoVo cells (Homo sapiens, LoVo) it was 63 ± 14.4 µM; in the test on LoVo/DX cells (Homo sapiens, LoVo/DX), 66 ± 8.7 µM; in the test on MCF-7 cells (setting [3]) it was 127 ± 28.3 µM. In addition, in the test with BALB/3T3 cells (setting [4]), the IC50 was 208 ± 30.7 µM. The “Resistance index (RI)” value with LoVo/DX cells was 1.05.
Regarding `C[N+](C)(C)CCOP(=O)([O-])OC[C@@H](COC(=O)C=Cc1ccccc1)OC(=O)C=Cc1ccccc1` [Compound 3a, 1,2-Dicinnamoyl-sn-glycero-3-phosphocholine], the IC50 in the test with MV4-11 cells (Homo sapiens, MV4-11) is 215 ± 51.9 µM; with A549 cells (setting [1]), greater than 625 µM; in the test on HepG2 cells (setting [2]), greater than 625 µM; with LoVo cells (Homo sapiens, LoVo) it was 200 ± 49.7 µM; in the test on LoVo/DX cells (Homo sapiens, LoVo/DX) it was 329 ± 12.5 µM; in the test on MCF-7 cells (setting [3]), 321 ± 11.1 µM. In the test with BALB/3T3 cells (setting [4]), this compound came in with an IC50 greater than 625 µM. In addition, the “Resistance index (RI)” value in the test on LoVo/DX cells is 1.65.
Regarding `N.N.[Cl][Pt][Cl]` [Cisplatin, cisplatin, reference compound], the IC50 came out at 1.3 ± 0.47 µM in the test with MV4-11 cells; 8.6 ± 0.7 µM with A549 cells (lung cancer cells); 2.38 ± 0.64 µM in the test on HepG2 cells (liver cancer cells); 2.56 ± 0.4 µM with LoVo cells; 3.17 ± 0.2 µM with LoVo/DX cells; 8.1 ± 0.03 µM with MCF-7 cells (breast cancer cells). Further, in the test with BALB/3T3 cells (normal mice fibroblast cells), half-maximal inhibition (IC50) required 4.2 ± 1.1 µM.
With “1-Cinnamoyl-2-hydroxy-sn-glycero-3-phosphocholine [Compound 9a]”, the IC50 in the test with MV4-11 cells was determined as 44.3 ± 5.1 µM; in the test with A549 cells (lung cancer cells), 287.1 ± 2 µM; with HepG2 cells (liver cancer cells) it was 290 ± 19.4 µM; in the test on LoVo cells, 112 ± 26.3 µM; with LoVo/DX cells, 238.2 ± 2.3 µM; with MCF-7 cells (breast cancer cells), 104 ± 4.4 µM. The IC50 in the test with BALB/3T3 cells (normal mice fibroblast cells) is 160 ± 45.7 µM. Besides, the “Fold lower IC50 than free cinnamic / 3-methoxycinnamic acid” value in the test on MV4-11 cells turned out to be 8 fold. The “Resistance index (RI)” value in the test with LoVo/DX cells is 2.13. Besides, the “Ability to overcome drug resistance” value in the test with LoVo/DX cells (doxorubicin-resistant LoVo/DX cell line, judged from RI) was “moderate ability to overcome drug resistance”.
